Laboratory results reported in paper doi:10.1101/2022.02.10.480023v1 (biorxiv, 2022).

Molecular target: T1, AbDHDPS (Acinetobacter baumannii, UniProt D0CFC3)
T1 sequence (D0CFC3 1-297): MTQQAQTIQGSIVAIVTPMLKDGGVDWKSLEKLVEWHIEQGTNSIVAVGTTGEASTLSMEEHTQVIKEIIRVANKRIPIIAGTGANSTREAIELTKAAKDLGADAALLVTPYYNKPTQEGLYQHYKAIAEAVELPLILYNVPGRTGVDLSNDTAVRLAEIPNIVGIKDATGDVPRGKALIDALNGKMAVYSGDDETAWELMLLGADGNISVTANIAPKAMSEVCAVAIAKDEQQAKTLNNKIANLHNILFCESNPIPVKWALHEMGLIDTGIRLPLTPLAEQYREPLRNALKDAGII
Assay: DHDPS-DHDPR coupled assay, NADPH oxidation at […] nm
Format: biochemical

SMILES: CS(=O)(=O)NNc1ccccc1 [N’-phenylmethanesulfonohydrazide]
- IC50: 35 µM
